Publication PMC12724307, “Characterization of the initial degradation mechanism involved in C-glycosylated isoflavone puerarin in soil microorganism” (Applied and Environmental Microbiology, 2025)

Tested on: T1, PurA
T1 construct: ORF of 1,551 nt, pET24a(+), His-tagged, E. coli Rosetta2 (DE3), Ni-column; calculated 55,563 Da; monomer
Assay: peroxidase-coupled H2O2 assay (DAOS/4-aminoantipyrine)
Format: biochemical, Paenarthrobacter sp. No. 37
Conditions: oxygen as electron acceptor; Tris-HCl pH 8.0; 28°C; apparent steady-state constants

Km: 43.4 ± 6.6 µM
SMILES: O=c1c(-c2ccc(O)cc2)coc2c([C@@H]3O[C@H](CO)[C@@H](O)[C@H](O)[C@H]3O)c(O)ccc12 [compound 1, puerarin]
